Reference: PubChem BioAssay (NCI)
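Tested at 5 concentrations; 48 h exposure; 96-well plates; endpoints linearly interpolated, else capped at highest concentration. GI50: concentration for 50% inhibition of growth. TGI marks complete inhibition of growth.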

How the values were obtained:
Test in all cases: NCI anticancer screen, dose series, 48 h
[1] = system: TK-10 renal
[2] = system: 786-0 renal
[3] = system: MDA-MB-231 breast
[4] = system: SF-295 CNS
[5] = system: UO-31 renal
[6] = system: KM12 colon
[7] = system: T-47D breast
[8] = system: U251 CNS
[9] = system: IGROV1 ovarian
[10] = system: BT-549 breast
[11] = system: CCRF-CEM leukemia
[12] = system: HL-60(TB) leukemia
[13] = system: SF-539 CNS
[14] = system: UACC-62 melanoma
[15] = system: M14 melanoma
[16] = system: ACHN renal
[17] = system: A498 renal
[18] = system: PC-3 prostate
[19] = system: HCT-15 colon
[20] = system: RXF 393 renal
[21] = system: NCI-H460 lung
[22] = system: RPMI-8226 leukemia
[23] = system: DU-145 prostate
[24] = system: SN12C renal
[25] = system: OVCAR-4 ovarian
[26] = system: SK-MEL-2 melanoma
[27] = system: SK-OV-3 ovarian
[28] = system: SK-MEL-28 melanoma
[29] = system: SNB-19 CNS
[30] = system: NCI-H522 lung
[31] = system: SNB-75 CNS
[32] = system: SF-268 CNS
[33] = system: NCI-H23 lung
[34] = system: CAKI-1 renal
[35] = system: MALME-3M melanoma
[36] = system: MDA-MB-435
[37] = system: OVCAR-3 ovarian
[38] = system: K-562 leukemia
[39] = system: HOP-62 NSCLC
[40] = system: OVCAR-5 ovarian
[41] = system: SK-MEL-5 melanoma
[42] = system: HCT-116 colon
[43] = system: OVCAR-8 ovarian
[44] = system: UACC-257 melanoma
[45] = system: HT29 colon
[46] = system: HS 578T breast
[47] = system: EKVX NSCLC
[48] = system: COLO 205 colon
[49] = system: SW-620 colon
[50] = system: NCI-H226 lung
[51] = system: A549 NSCLC
[52] = system: HOP-92 NSCLC
[53] = system: MOLT-4 leukemia
[54] = system: MCF7 breast
[55] = system: NCI/ADR-RES ovarian
[56] = system: HCC-2998 colon
[57] = system: LOX IMVI melanoma

**Q.** Which GI50 [1] does the source give for `Cc1cc([C@@H](C)Nc2ccccc2C(=O)O)c2nc(N3CCOCC3)cc(=O)n2c1` here?
**A.** > 10 µM

**Q.** And the TGI [1]?
**A.** > 10 µM

**Q.** What about the GI50 [2] of the same compound?
**A.** 1.23 µM

**Q.** What about the TGI [2] of the same compound?
**A.** > 10 µM

**Q.** And the GI50 [3]?
**A.** > 10 µM

**Q.** What about the TGI [3] of the same compound?
**A.** > 10 µM

**Q.** What about the GI50 [4] of the same compound?
**A.** 1.85 µM

**Q.** And the TGI [4]?
**A.** > 10 µM

**Q.** What about the GI50 [5] of the same compound?
**A.** 2.43 µM

**Q.** And the TGI [5]?
**A.** > 10 µM

**Q.** And the GI50 [6]?
**A.** > 10 µM

**Q.** And the TGI [6]?
**A.** > 10 µM

**Q.** What about the GI50 [7] of the same compound?
**A.** 0.207 µM

**Q.** And the TGI [7]?
**A.** 1.94 µM

**Q.** What about the GI50 [8] of the same compound?
**A.** > 10 µM

**Q.** And the TGI [8]?
**A.** > 10 µM

**Q.** What about the GI50 [9] of the same compound?
**A.** 1.85 µM

**Q.** What about the TGI [9] of the same compound?
**A.** > 10 µM

**Q.** What about the GI50 [10] of the same compound?
**A.** 1.17 µM

**Q.** And the TGI [10]?
**A.** > 10 µM

**Q.** What about the GI50 [11] of the same compound?
**A.** > 10 µM

**Q.** What about the TGI [11] of the same compound?
**A.** > 10 µM

**Q.** What about the GI50 [12] of the same compound?
**A.** 5.5 µM

**Q.** What about the TGI [12] of the same compound?
**A.** > 10 µM

**Q.** What about the GI50 [13] of the same compound?
**A.** 7.11 µM

**Q.** What about the TGI [13] of the same compound?
**A.** > 10 µM

**Q.** And the GI50 [14]?
**A.** 0.627 µM

**Q.** And the TGI [14]?
**A.** > 10 µM

**Q.** And the GI50 [15]?
**A.** > 10 µM

**Q.** What about the TGI [15] of the same compound?
**A.** > 10 µM

**Q.** What about the GI50 [16] of the same compound?
**A.** > 10 µM

**Q.** And the TGI [16]?
**A.** > 10 µM

**Q.** And the GI50 [17]?
**A.** 0.0166 µM

**Q.** What about the TGI [17] of the same compound?
**A.** 0.0945 µM

**Q.** And the GI50 [18]?
**A.** 3.73 µM

**Q.** What about the TGI [18] of the same compound?
**A.** > 10 µM

**Q.** What about the GI50 [19] of the same compound?
**A.** > 10 µM

**Q.** And the TGI [19]?
**A.** > 10 µM

**Q.** What about the GI50 [20] of the same compound?
**A.** 0.0564 µM

**Q.** And the TGI [20]?
**A.** 1.33 µM

**Q.** What about the GI50 [21] of the same compound?
**A.** > 10 µM

**Q.** What about the TGI [21] of the same compound?
**A.** > 10 µM

**Q.** And the GI50 [22]?
**A.** > 10 µM

**Q.** And the TGI [22]?
**A.** > 10 µM

**Q.** And the GI50 [23]?
**A.** > 10 µM

**Q.** And the TGI [23]?
**A.** > 10 µM

**Q.** And the GI50 [24]?
**A.** > 10 µM

**Q.** What about the TGI [24] of the same compound?
**A.** > 10 µM

**Q.** What about the GI50 [25] of the same compound?
**A.** > 10 µM

**Q.** What about the TGI [25] of the same compound?
**A.** > 10 µM

**Q.** What about the GI50 [26] of the same compound?
**A.** > 10 µM

**Q.** What about the TGI [26] of the same compound?
**A.** > 10 µM

**Q.** What about the GI50 [27] of the same compound?
**A.** 1.08 µM

**Q.** And the TGI [27]?
**A.** > 10 µM

**Q.** And the GI50 [28]?
**A.** > 10 µM

**Q.** And the TGI [28]?
**A.** > 10 µM

**Q.** And the GI50 [29]?
**A.** > 10 µM

**Q.** What about the TGI [29] of the same compound?
**A.** > 10 µM

**Q.** What about the GI50 [30] of the same compound?
**A.** > 10 µM

**Q.** What about the TGI [30] of the same compound?
**A.** > 10 µM

**Q.** What about the GI50 [31] of the same compound?
**A.** 0.43 µM

**Q.** What about the TGI [31] of the same compound?
**A.** > 10 µM

**Q.** And the GI50 [32]?
**A.** > 10 µM

**Q.** And the TGI [32]?
**A.** > 10 µM

**Q.** And the GI50 [33]?
**A.** > 10 µM

**Q.** What about the TGI [33] of the same compound?
**A.** > 10 µM

**Q.** What about the GI50 [34] of the same compound?
**A.** 6.28 µM

**Q.** And the TGI [34]?
**A.** > 10 µM

**Q.** What about the GI50 [35] of the same compound?
**A.** > 10 µM

**Q.** And the TGI [35]?
**A.** > 10 µM

**Q.** And the GI50 [36]?
**A.** > 10 µM

**Q.** What about the TGI [36] of the same compound?
**A.** > 10 µM

**Q.** And the GI50 [37]?
**A.** 6.02 µM

**Q.** What about the TGI [37] of the same compound?
**A.** > 10 µM

**Q.** What about the GI50 [38] of the same compound?
**A.** > 10 µM

**Q.** And the TGI [38]?
**A.** > 10 µM

**Q.** And the GI50 [39]?
**A.** > 10 µM

**Q.** What about the TGI [39] of the same compound?
**A.** > 10 µM

**Q.** And the GI50 [40]?
**A.** > 10 µM

**Q.** What about the TGI [40] of the same compound?
**A.** > 10 µM

**Q.** What about the GI50 [41] of the same compound?
**A.** > 10 µM

**Q.** What about the TGI [41] of the same compound?
**A.** > 10 µM

**Q.** And the GI50 [42]?
**A.** 2.76 µM

**Q.** And the TGI [42]?
**A.** > 10 µM

**Q.** What about the GI50 [43] of the same compound?
**A.** > 10 µM

**Q.** And the TGI [43]?
**A.** > 10 µM

**Q.** And the GI50 [44]?
**A.** > 10 µM

**Q.** What about the TGI [44] of the same compound?
**A.** > 10 µM

**Q.** What about the GI50 [45] of the same compound?
**A.** > 10 µM

**Q.** What about the TGI [45] of the same compound?
**A.** > 10 µM

**Q.** What about the GI50 [46] of the same compound?
**A.** 0.122 µM

**Q.** What about the TGI [46] of the same compound?
**A.** 8.14 µM

**Q.** And the GI50 [47]?
**A.** > 10 µM

**Q.** And the TGI [47]?
**A.** > 10 µM

**Q.** What about the GI50 [48] of the same compound?
**A.** > 10 µM

**Q.** And the TGI [48]?
**A.** > 10 µM

**Q.** What about the GI50 [49] of the same compound?
**A.** > 10 µM

**Q.** And the TGI [49]?
**A.** > 10 µM

**Q.** What about the GI50 [50] of the same compound?
**A.** > 10 µM

**Q.** What about the TGI [50] of the same compound?
**A.** > 10 µM

**Q.** What about the GI50 [51] of the same compound?
**A.** > 10 µM

**Q.** What about the TGI [51] of the same compound?
**A.** > 10 µM

**Q.** And the GI50 [52]?
**A.** 0.175 µM

**Q.** And the TGI [52]?
**A.** 6.08 µM

**Q.** What about the GI50 [53] of the same compound?
**A.** 5.42 µM

**Q.** And the TGI [53]?
**A.** > 10 µM

**Q.** What about the GI50 [54] of the same compound?
**A.** 3.36 µM

**Q.** What about the TGI [54] of the same compound?
**A.** > 10 µM

**Q.** And the GI50 [55]?
**A.** > 10 µM

**Q.** What about the TGI [55] of the same compound?
**A.** > 10 µM

**Q.** And the GI50 [56]?
**A.** > 10 µM

**Q.** And the TGI [56]?
**A.** > 10 µM

**Q.** What about the GI50 [57] of the same compound?
**A.** 6.73 µM

**Q.** What about the TGI [57] of the same compound?
**A.** > 10 µM
